Test systems include 786-0; SW-620; IGROV-1; HL-60; K562; SN12C; EKVX; SK-MEL-2; SK-MEL-28; HT-29; MOLT-4; NCI-H23; ACHN; A549; NCI/ADR-RES; SNB-75; MCF7; NCI-H226; NCI-H460.
Common to all, as to test: growth of human tumour cells (NCI), 48 h

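Values below derive from 48-hour exposures of cells grown in 96-well plates, with endpoints linearly interpolated between the two concentrations bracketing the appropriate inhibition level. GI50 is the concentration that inhibits growth by half.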 Calls of active or inactive are those of the source. Cut-off read from the data, not from the text of the source: active = GI50 up to about 1.1 µM and inactive = higher.

As to `COc1c(CC=C(C)C)c(O)c(C(CC(C)C)c2c(O)c3c(c(C(C)=O)c2O)OC(C(C)(C)O)C3)c(O)c1C(C)=O` (stereo not drawn), the GI50 with 786-0 is 5.65 µM (inactive); in the test with SW-620, 4.62 µM (inactive); with IGROV-1, 5.07 µM (inactive); with HL-60 it was 3.52 µM (inactive); in the test with K562 it was 2.6 µM (inactive); with SN12C, 3.93 µM (inactive). Moreover, the GI50 with EKVX was 3.76 µM (inactive); with SK-MEL-2, 4.15 µM (inactive); with SK-MEL-28 it was 6.12 µM (inactive); in the test on HT-29, 4.86 µM (inactive); with MOLT-4, 1.74 µM (inactive); in the test with NCI-H23, 2.63 µM (inactive). Further, the GI50 in the test on ACHN is 4.42 µM (inactive); in the test on A549 it was 4.21 µM (inactive); in the test with NCI/ADR-RES it was 3.44 µM (inactive); with SNB-75, 4.92 µM (inactive); with MCF7, 3.61 µM (inactive).

Take `CN1CN(c2ccccc2)C2(CCN(Cc3csc4ccccc34)CC2)C1=O`: the GI50 in the test on 786-0 is 19.4 µM (inactive); in the test with SW-620, 13.3 µM (inactive); in the test on IGROV-1, 10.8 µM (inactive); with NCI-H226, 21 µM (inactive); in the test with HL-60, 4.39 µM (inactive); in the test with K562, 5.45 µM (inactive). In addition, the GI50 is 13.5 µM (inactive) in the test with SN12C; 7.53 µM (inactive) in the test on EKVX; 22.1 µM (inactive) in the test with SK-MEL-28; 4.83 µM (inactive) in the test with HT-29; 4.32 µM (inactive) in the test on MOLT-4; 6.44 µM (inactive) in the test with NCI-H23. In addition, the GI50 with ACHN is 17.6 µM (inactive); in the test with A549 it was 18.6 µM (inactive); with NCI/ADR-RES, 8.97 µM (inactive); with SNB-75, 23.7 µM (inactive); in the test on MCF7 it was 11.6 µM (inactive).

For the molecule `Cc1cc(S(=O)(=O)NC(=C(C#N)C#N)[n+]2ccc(N(C)C)cc2)c([S-])cc1Cl`, the GI50 in the test with 786-0, with IGROV-1, with NCI-H226, in the test on HL-60, in the test with K562 and in the test with SN12C was > 100 µM (inactive) throughout. Further, the GI50 in the test with EKVX, with SK-MEL-2, with SK-MEL-28, in the test with HT-29, in the test with MOLT-4 and with NCI-H23 was > 100 µM (inactive) throughout. The GI50 in the test on ACHN, in the test on A549, in the test on NCI/ADR-RES, in the test with MCF7 and in the test on NCI-H460 was > 100 µM (inactive) each time.

As to `O=C(/C=C/c1ccc(O)c(-c2cc(C(=O)/C=C/c3ccc(O)cc3)c(O)cc2O)c1)c1ccc(O)cc1O` [RHUSCHALCONE VI], the GI50 with 786-0 was 47.6 µM (inactive); in the test with SW-620, 19.5 µM (inactive); in the test on IGROV-1, 24.5 µM (inactive); in the test on HL-60, 17.3 µM (inactive); in the test on K562, 13.6 µM (inactive); in the test on SN12C it was 20.4 µM (inactive). The GI50 in the test on EKVX was > 50 µM (inactive); in the test with SK-MEL-2 it was 20.7 µM (inactive); in the test on SK-MEL-28, 10.4 µM (inactive); in the test on HT-29, 10.1 µM (inactive); in the test with MOLT-4 it was 16.1 µM (inactive); in the test with NCI-H23, 23.9 µM (inactive). The GI50 was > 50 µM (inactive) in the test with ACHN; > 50 µM (inactive) in the test on A549; > 50 µM (inactive) with NCI/ADR-RES; 13.3 µM (inactive) with SNB-75; 20.2 µM (inactive) with MCF7; > 50 µM (inactive) in the test on NCI-H460.

`O=C(O)c1cccc(F)c1C(=O)c1ccc2ccccc2c1`: the GI50 in the test with 786-0, in the test with SW-620, in the test on IGROV-1, in the test with NCI-H226, in the test with HL-60 and with K562 was > 100 µM (inactive) each time. Moreover, the GI50 in the test on SN12C, in the test with EKVX, in the test on SK-MEL-2, in the test with SK-MEL-28, in the test on HT-29 and with ACHN was > 100 µM (inactive) in each case. Further, the GI50 was > 100 µM (inactive) in the test on A549; > 100 µM (inactive) in the test with NCI/ADR-RES; 73.1 µM (inactive) in the test with SNB-75; > 100 µM (inactive) in the test on MCF7; > 100 µM (inactive) in the test with NCI-H460.

Turning to `Cc1ccc2c(O)cc(-c3cccc(Cl)c3)nc2n1`, the GI50 was < 0.0255 µM (active) in the test on 786-0; < 0.01 µM (active) in the test with SW-620; 0.0155 µM (active) with IGROV-1; 0.0489 µM (active) in the test with NCI-H226; < 0.0169 µM (active) in the test with HL-60; < 0.0169 µM (active) with K562. The GI50 in the test with EKVX is > 68.1 µM (inactive); in the test on SK-MEL-2, 0.0324 µM (active); with SK-MEL-28, 0.0916 µM (active); in the test with HT-29, < 0.0179 µM (active); in the test with MOLT-4, < 0.0229 µM (active); in the test on NCI-H23, 0.272 µM (active). The GI50 with ACHN was 0.313 µM (active); with A549 it was 0.0325 µM (active); in the test with NCI/ADR-RES, 0.0411 µM (active); with MCF7, < 0.0217 µM (active); in the test with NCI-H460 it was < 0.0204 µM (active).

For `CCOP(=O)(OCC)/C(F)=C/c1ccccc1`, the GI50 with 786-0, in the test on SW-620, in the test with IGROV-1, with HL-60, in the test on K562 and in the test on SN12C was > 100 µM (inactive) in each case. Moreover, the GI50 in the test with EKVX, with SK-MEL-2, in the test with SK-MEL-28, with HT-29, with MOLT-4 and in the test with NCI-H23 was > 100 µM (inactive) in each case. In addition, the GI50 with ACHN, in the test on A549, in the test with NCI/ADR-RES, with SNB-75, in the test on MCF7 and with NCI-H460 was > 100 µM (inactive) in each case.

As for `O=C(c1cccc2ccccc12)C1(Br)S(=O)(=O)OCCOS1(=O)=O`, the GI50 in the test with 786-0 is > 100 µM (inactive); in the test with HL-60, > 100 µM (inactive); in the test on K562 it was > 10 µM (inactive); in the test on SN12C, > 100 µM (inactive); in the test on EKVX it was > 100 µM (inactive); in the test with SK-MEL-2 it was > 100 µM (inactive). Besides, the GI50 in the test on SK-MEL-28, in the test with HT-29, with MOLT-4, in the test on NCI-H23, with ACHN and with A549 was > 100 µM (inactive) in each case. Also, the GI50 with NCI/ADR-RES, with MCF7 and in the test on NCI-H460 was > 100 µM (inactive) each time.

Take `CSc1ncnc2c1ncn2C1OC(CO)C(O)OC1O` (stereo not drawn): the GI50 was 0.785 µM (active) in the test on 786-0; 1.51 µM (inactive) in the test with SW-620; 0.897 µM (active) in the test on IGROV-1; 1.97 µM (inactive) with HL-60; 1.16 µM (inactive) with K562; 1.06 µM (active) in the test on SN12C. Further, the GI50 in the test on EKVX was 0.624 µM (active); in the test on SK-MEL-2, 2.76 µM (inactive); with SK-MEL-28 it was 13.7 µM (inactive); in the test with HT-29, 0.449 µM (active); with MOLT-4, 0.281 µM (active); in the test on NCI-H23, 0.721 µM (active). Further, the GI50 with ACHN is 0.643 µM (active); with A549, 0.662 µM (active); in the test on NCI/ADR-RES, 2.56 µM (inactive); in the test with SNB-75, 10.9 µM (inactive); with MCF7, 0.262 µM (active); with NCI-H460, 0.424 µM (active).

Consider `CCN1CCN(c2nc3ccc([N+](=O)[O-])cc3nc2C(=O)c2ccccc2)CC1`, for which the GI50 in the test on 786-0 was 18.7 µM (inactive); in the test with SW-620, 21 µM (inactive); in the test with IGROV-1, 5.78 µM (inactive); in the test with NCI-H226 it was 11.8 µM (inactive); with HL-60 it was 26.2 µM (inactive); in the test with K562, 6.31 µM (inactive). The GI50 in the test with SN12C is 16.3 µM (inactive); in the test on EKVX it was 16.1 µM (inactive); in the test with SK-MEL-2, 15.8 µM (inactive); with MOLT-4, 3.23 µM (inactive); with NCI-H23 it was 17.2 µM (inactive); in the test on ACHN, 15.8 µM (inactive). The GI50 in the test on A549 was 17.6 µM (inactive); with NCI/ADR-RES, 14.8 µM (inactive); in the test on MCF7, 18.3 µM (inactive); with NCI-H460 it was 21.8 µM (inactive).

For `O=c1c2c3c(sc2nc2n1sc1nc4sc5c(c4c(=O)n12)CCCC5)CCCC3`, the GI50 in the test on 786-0 was 17.3 µM (inactive); with SW-620, 28.8 µM (inactive); in the test on IGROV-1 it was > 100 µM (inactive); in the test with NCI-H226, > 50.7 µM (inactive); in the test with HL-60 it was 27.2 µM (inactive); in the test on K562, 25.1 µM (inactive). The GI50 was > 87.1 µM (inactive) in the test on SN12C; 12 µM (inactive) in the test on EKVX; > 100 µM (inactive) with SK-MEL-2; > 80.5 µM (inactive) with SK-MEL-28; 41.2 µM (inactive) with HT-29; 37.1 µM (inactive) with MOLT-4. For the same molecule, the GI50 in the test on NCI-H23 is 30.6 µM (inactive); in the test with ACHN it was 61.5 µM (inactive); in the test with A549 it was > 77.1 µM (inactive); with NCI/ADR-RES, 32.1 µM (inactive); in the test on MCF7, 23.8 µM (inactive); with NCI-H460 it was > 100 µM (inactive).
